Source: ChEMBL document CHEMBL5727267, “Compounds useful as inhibitors of ATR kinase” (2019)

Target: Serine/threonine-protein kinase ATR (Homo sapiens, UniProt Q13535)
Test: Inhibition Assay: Compounds were screened for their ability to inhibit ATR kinase using a radioactive-phosphate incorporation assay. Assays were carried out in a mixture of 50 mM Tris/HCl (pH 7.5), 10 mM MgCl2 and 1 mM DTT. Final substrate concentrations were 10 μM [γ-33P]ATP (3mCi 33P ATP/mmol ATP, Perkin Elmer) and 800 μM target peptide ([…]) (SEQ ID NO:1).Assays were carried out at 25° C. in the presence of 5 nM full-length ATR. An assay stock buffer solution was prepared containing all of the reagents listed above, with the exception of ATP and the test compound of interest. 13.5 μL of the stock solution was placed in a 96 well plate followed by addition of 2 μL of DMSO stock containing serial dilutions of the test compound (typically starting from a final concentration of 15 μM with 3-fold serial dilutions) in duplicate (final DMSO concentration 7%). The plate was pre-incubated for 10 minutes at 25° C. and the reaction initiated by addition of 15 μL [γ-33P]ATP (final concentration 10 μM).The reaction was stopped after 24 hours by the addition of 30 μL 0.1M phosphoric acid containing 2 mM ATP. A multiscreen phosphocellulose filter 96-well plate (Millipore, Cat no. MAPHN0B50) was pretreated with 100 μL 0.2M phosphoric acid prior to the addition of […] of the stopped assay mixture. The plate was washed with 5×200 μL 0.2M phosphoric acid. After drying, 100 μL Optiphase ‘SuperMix’ liquid scintillation cocktail (Perkin Elmer) was added to the well prior to scintillation counting (1450 Microbeta Liquid Scintillation Counter, Wallac).

Chain of Serine/threonine-protein kinase ATR (Q13535 whole entry): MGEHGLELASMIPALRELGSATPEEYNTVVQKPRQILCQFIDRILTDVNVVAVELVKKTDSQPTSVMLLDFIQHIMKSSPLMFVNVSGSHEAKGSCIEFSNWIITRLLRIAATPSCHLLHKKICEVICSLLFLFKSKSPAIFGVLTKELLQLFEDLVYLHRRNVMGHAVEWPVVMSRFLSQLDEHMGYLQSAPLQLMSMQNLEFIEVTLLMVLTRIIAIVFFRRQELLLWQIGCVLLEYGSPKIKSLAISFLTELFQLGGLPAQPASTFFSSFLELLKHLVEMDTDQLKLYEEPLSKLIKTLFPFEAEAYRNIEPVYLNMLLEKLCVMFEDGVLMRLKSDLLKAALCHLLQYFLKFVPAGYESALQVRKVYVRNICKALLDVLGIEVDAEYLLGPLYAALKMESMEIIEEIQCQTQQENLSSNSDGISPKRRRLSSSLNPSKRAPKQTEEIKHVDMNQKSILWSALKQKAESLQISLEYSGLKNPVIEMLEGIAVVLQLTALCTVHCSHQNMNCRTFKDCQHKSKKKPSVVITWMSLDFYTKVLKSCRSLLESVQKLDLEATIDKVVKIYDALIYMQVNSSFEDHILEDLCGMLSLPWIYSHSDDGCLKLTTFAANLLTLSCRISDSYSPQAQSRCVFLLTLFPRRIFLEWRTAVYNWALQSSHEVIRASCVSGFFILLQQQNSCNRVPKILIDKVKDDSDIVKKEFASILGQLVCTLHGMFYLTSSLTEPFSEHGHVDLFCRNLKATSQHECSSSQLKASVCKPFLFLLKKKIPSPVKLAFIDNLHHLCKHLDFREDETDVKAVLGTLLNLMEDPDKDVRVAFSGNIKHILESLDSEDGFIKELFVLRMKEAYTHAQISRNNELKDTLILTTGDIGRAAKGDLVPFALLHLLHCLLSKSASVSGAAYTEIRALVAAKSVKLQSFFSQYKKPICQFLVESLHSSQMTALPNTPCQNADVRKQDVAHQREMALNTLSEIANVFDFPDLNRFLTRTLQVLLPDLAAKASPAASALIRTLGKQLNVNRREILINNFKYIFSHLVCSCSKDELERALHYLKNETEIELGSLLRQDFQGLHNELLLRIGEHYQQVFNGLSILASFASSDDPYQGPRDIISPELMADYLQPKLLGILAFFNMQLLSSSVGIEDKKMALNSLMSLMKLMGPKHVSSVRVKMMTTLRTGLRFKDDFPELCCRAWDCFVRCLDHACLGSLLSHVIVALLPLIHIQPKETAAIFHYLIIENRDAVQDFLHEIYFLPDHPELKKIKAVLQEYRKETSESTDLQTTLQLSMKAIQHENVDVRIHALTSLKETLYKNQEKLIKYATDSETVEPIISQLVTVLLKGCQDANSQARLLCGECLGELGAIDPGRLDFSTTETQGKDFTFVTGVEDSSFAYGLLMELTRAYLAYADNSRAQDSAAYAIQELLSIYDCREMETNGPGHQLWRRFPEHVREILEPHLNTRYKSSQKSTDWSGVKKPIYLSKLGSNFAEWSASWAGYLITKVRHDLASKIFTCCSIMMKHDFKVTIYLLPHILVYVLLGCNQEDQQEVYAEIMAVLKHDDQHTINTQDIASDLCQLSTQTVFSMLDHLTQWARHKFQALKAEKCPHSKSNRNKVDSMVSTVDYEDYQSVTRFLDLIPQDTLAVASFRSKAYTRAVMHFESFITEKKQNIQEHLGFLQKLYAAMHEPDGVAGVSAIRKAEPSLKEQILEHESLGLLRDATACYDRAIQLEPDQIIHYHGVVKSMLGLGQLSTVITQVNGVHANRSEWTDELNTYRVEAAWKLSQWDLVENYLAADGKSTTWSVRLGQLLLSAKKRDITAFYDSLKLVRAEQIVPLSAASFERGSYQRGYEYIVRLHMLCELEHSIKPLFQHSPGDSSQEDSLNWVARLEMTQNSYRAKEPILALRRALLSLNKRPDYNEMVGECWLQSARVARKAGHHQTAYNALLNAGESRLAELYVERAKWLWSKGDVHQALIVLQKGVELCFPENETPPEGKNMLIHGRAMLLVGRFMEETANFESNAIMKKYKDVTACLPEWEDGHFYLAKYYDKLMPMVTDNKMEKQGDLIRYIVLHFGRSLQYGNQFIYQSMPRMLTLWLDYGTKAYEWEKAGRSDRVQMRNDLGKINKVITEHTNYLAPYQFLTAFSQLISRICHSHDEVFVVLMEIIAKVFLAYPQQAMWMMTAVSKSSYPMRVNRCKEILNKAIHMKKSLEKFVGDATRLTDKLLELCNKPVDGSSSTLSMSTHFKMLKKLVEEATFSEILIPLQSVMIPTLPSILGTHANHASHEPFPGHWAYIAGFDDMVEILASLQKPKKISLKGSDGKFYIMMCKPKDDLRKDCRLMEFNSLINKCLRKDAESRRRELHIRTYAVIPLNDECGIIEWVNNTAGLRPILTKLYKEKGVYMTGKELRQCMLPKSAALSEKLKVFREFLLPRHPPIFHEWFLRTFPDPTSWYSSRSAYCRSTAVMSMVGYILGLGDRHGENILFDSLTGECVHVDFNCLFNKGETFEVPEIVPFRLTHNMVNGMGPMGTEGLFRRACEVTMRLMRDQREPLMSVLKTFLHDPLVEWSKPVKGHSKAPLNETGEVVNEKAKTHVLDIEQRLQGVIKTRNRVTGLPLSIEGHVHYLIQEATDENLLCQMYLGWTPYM

| Compound | Ki [nM] |
| --- | --- |
| N#CCc1cnc2c(C(=O)Nc3cnccc3O[C@H]3CCNC3)c(N)nn2c1 | < 10 |
| Nc1nn2cc(F)cnc2c1C(=O)Nc1cncc(F)c1N1CCC(C(=O)N2CCC(N3CCC3)CC2)CC1 | < 10 |
| CC(=O)N1CCN(c2ccncc2NC(=O)c2c(N)nn3cc(F)cnc23)CC1 | 10 to 1000 |
